Experiments:
Type in all cases: in vivo
Pyrenophora teres = Pyrenophora teres test (barley)/protective; conditions: protective spray, evaluation 7-9 days after inoculation
Method: Pyrenophora teres Test (Barley)/Protective
(§1) Solvent: 49 parts by weight of N,N-dimethylacetamide
(§2) Emulsifier: 1 part by weight of alkylaryl polyglycol ether
To produce a suitable preparation of active compound, 1 part by weight of active compound is mixed with the stated amounts of solvent and emulsifier, and the concentrate is diluted with water to the desired concentration. To test for protective activity, young plants are sprayed with the preparation of active compound at the stated application rate. 1 day after this treatment, the plants are inoculated with an aqueous spore suspension of Pyrenophora teres. The plants remain in an incubation cabin at 20° C. and 100% relative atmospheric humidity for 48 hours. The plants are placed in a greenhouse at a temperature of about 20° C. and a relative atmospheric humidity of about 80%. Evaluation is carried out 7-9 days after the inoculation. 0% means an efficacy which corresponds to that of the control, whereas an efficacy of 100% means that no infection is observed.

Uromyces appendiculatus = assay: Uromyces test (bean)/protective; conditions: 240 h, protective spray, evaluation 10 days after inoculation, read-out: Efficacy (%)
Method: Uromyces Test (Bean)/Protective
Solvents: 24.5 parts by weight of acetone
• 24.5 parts by weight of dimethylacetamide Emulsifier: 1 part by weight of alkylaryl polyglycol ether
To produce a suitable preparation of active compound, 1 part by weight of active compound is mixed with the stated amounts of solvent and emulsifier, and the concentrate is diluted with water to the desired concentration. To test for protective activity, young plants are sprayed with the preparation of active compound at the stated application rate. After the spray coating has dried on, the plants are inoculated with an aqueous spore suspension of the bean rust pathogen Uromyces appendiculatus and then remain in an incubation cabin at about 20° C. and 100% relative atmospheric humidity for 1 day. The plants are then placed in the greenhouse at about 21° C. and a relative atmospheric humidity of about 90%. Evaluation follows 10 days after the inoculation. 0% means an efficacy which corresponds to that of the control, whereas an efficacy of 100% means that no infection is observed.
In this test, the following compounds according to the invention show, at an active compound concentration of 100 ppm, an efficacy of 70% or more: […]

Puccinia triticina = Puccinia triticina test (wheat)/protective; conditions: 192 h, protective spray, evaluation 8 days after inoculation, read-out: Efficacy (%)
Method: Puccinia triticina Test (Wheat)/Protective
as §1, §2
To produce a suitable preparation of active compound, 1 part by weight of active compound is mixed with the stated amounts of solvent and emulsifier, and the concentrate is diluted with water to the desired concentration. To test for protective activity, young plants are sprayed with the preparation of active compound at the stated application rate. After the spray coating has dried on, the plants are sprayed with spores with a spore suspension of Puccinia triticina. The plants remain in an incubation cabin at 20° C. and 100% relative atmospheric humidity for 48 hours. The plants are placed in a greenhouse at a temperature of about 20° C. and a relative atmospheric humidity of about 80%. Evaluation follows 8 days after the inoculation. 0% means an efficacy which corresponds to that of the control, whereas an efficacy of 100% means that no infection is observed.
In this test, the following compounds according to the invention show, at an active compound concentration of 500 ppm, an efficacy of 70% or more: […]

Leptosphaeria nodorum = Leptosphaeria nodorum test (wheat)/protective; conditions: Parastagonospora nodorum, wheat plants, protective spray, evaluation 7-9 days after inoculation, read-out: Efficacy (%)
Method: Leptosphaeria nodorum Test (Wheat)/Protective
Solvent: 49 parts by weight of N,N-dimethylformamide
as §2
To produce a suitable preparation of active compound, 1 part by weight of active compound is mixed with the stated amounts of solvent and emulsifier, and the concentrate is diluted with water to the desired concentration. To test for protective activity, young wheat plants are sprayed with the preparation of active compound at the stated application rate. 1 day after the treatment, the plants are inoculated with an aqueous spore suspension of Leptosphaeria nodorum and then remain at 100% relative atmospheric humidity and 22° C. for 48 h. The plants are then placed in a greenhouse at 90% relative atmospheric humidity and a temperature of 22° C. Evaluation is carried out 7-9 days after the inoculation. 0% means an efficacy which corresponds to that of the control, whereas an efficacy of 100% means that no infection is observed. In this test, the following compounds according to the invention show, at an active compound concentration of 500 ppm, an efficacy of 70% or more: […]

For `CC(C)C(O)(COc1ccc(OC(F)(F)F)cc1)c1cncnc1` (stereo not shown) [Compound 2], the “Efficacy (%)” value (Pyrenophora teres; 100 ppm) was 0%, the “Efficacy (%)” value (Pyrenophora teres; 500 ppm) was 0% and the pest or weed control at 100 ppm (Uromyces appendiculatus) was 100%. For the same molecule, the pest or weed control at 500 ppm (Puccinia triticina) was 100% and the pest or weed control at 500 ppm (Leptosphaeria nodorum) was 100%.
`CC(C)(C)C(O)(COc1ccc(OC(F)(F)F)cc1)c1cncnc1` (stereo not shown) [Compound 12] was tested, and the “Efficacy (%)” value (Pyrenophora teres; 100 ppm) was 60%, the “Efficacy (%)” value (Pyrenophora teres; 500 ppm) was 95% and the pest or weed control at 100 ppm (Uromyces appendiculatus) was 100%. It also gave a pest or weed control at 500 ppm (Puccinia triticina) of 100% and a pest or weed control at 500 ppm (Leptosphaeria nodorum) of 95%.
Work on `CC(C)(C)C(O)(COc1ccc(SC(F)(F)F)cc1)c1cncnc1` (stereo not shown) [Compound 17] yielded a pest or weed control at 100 ppm (Uromyces appendiculatus) of 100%, a pest or weed control at 500 ppm (Puccinia triticina) of 100% and a pest or weed control at 500 ppm (Leptosphaeria nodorum) of 94%.
`CC1(C(O)(COc2ccc(OC(F)(F)F)cc2)c2cncnc2)CC1` (stereo not shown) [Compound 18] gave a pest or weed control at 100 ppm (Uromyces appendiculatus) of 100%, a pest or weed control at 500 ppm (Puccinia triticina) of 100% and a pest or weed control at 500 ppm (Leptosphaeria nodorum) of 95%.
